The structures appear in SMILES notation.

The experiment deals with Phosphatidylinositol 4,5-bisphosphate 3-kinase catalytic subunit alpha isoform (Homo sapiens, UniProt P42336). Kind of experiment: Enzyme Assay.
Phosphatidylinositol 4,5-bisphosphate 3-kinase catalytic subunit alpha isoform, sequence (P42336 whole entry, canonical isoform): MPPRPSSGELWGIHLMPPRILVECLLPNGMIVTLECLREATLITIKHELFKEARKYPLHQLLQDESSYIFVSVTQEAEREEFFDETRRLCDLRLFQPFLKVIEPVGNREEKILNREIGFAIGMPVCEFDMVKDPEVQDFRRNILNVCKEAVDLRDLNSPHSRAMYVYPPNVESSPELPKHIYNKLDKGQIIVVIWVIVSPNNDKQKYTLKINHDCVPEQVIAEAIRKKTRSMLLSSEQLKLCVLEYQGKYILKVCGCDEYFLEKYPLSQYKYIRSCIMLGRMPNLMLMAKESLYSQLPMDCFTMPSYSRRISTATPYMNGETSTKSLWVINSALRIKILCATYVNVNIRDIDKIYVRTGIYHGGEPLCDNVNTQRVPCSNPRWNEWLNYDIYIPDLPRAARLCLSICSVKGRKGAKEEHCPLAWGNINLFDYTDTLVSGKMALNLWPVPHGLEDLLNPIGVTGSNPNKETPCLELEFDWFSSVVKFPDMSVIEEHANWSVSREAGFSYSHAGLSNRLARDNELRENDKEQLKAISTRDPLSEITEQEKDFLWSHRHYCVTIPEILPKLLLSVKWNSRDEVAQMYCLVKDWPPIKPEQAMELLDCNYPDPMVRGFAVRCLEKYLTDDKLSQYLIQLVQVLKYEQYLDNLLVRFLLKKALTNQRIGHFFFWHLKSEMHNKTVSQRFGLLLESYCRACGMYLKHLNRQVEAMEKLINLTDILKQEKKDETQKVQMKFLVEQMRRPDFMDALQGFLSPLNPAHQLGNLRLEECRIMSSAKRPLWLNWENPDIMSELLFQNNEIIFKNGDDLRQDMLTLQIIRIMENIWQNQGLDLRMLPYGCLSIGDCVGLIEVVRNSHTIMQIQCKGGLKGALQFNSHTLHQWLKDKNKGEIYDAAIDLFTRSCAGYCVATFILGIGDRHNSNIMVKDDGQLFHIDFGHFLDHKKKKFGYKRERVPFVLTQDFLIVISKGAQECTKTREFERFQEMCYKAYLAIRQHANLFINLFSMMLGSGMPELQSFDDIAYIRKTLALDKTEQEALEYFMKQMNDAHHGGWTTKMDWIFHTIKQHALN
Source text: Inhibition of PI3 kinase by WmC20 derivatives causing a formation of covalent bond between WmC20 derivatives and the target protein.
On to `COC[C@H]1OC(=O)C(=CN(C)CCCCCC(=O)O)C2C(=O)C(=O)C3=C([C@H](OC(C)=O)C[C@]4(C)C(=O)CC[C@@H]34)[C@]21C` (some centres undefined) [WmC20-NMeHA, 4], for which half-maximal inhibition (IC50) required 0.108 µM. In other words, the sub-micromolar range. With `COC[C@H]1OC(=O)C(=CNCCCCC(NC(C)=O)C(=O)O)C2C(=O)C(=O)C3=C([C@H](OC(C)=O)C[C@]4(C)C(=O)CC[C@@H]34)[C@]21C` (some centres undefined) [WmC20-lys, 2] the figure was greater than 1 µM; with `COC[C@H]1OC(=O)C(CSCC(NC(C)=O)C(=O)O)=C2C(=O)C(=O)C3=C([C@H](OC(C)=O)C[C@]4(C)C(=O)CCC34)[C@]21C` (some centres undefined) [WmC20-cys, 3], 1.14 µM; with `COC[C@H]1OC(=O)C(=CN2CCCC2C(=O)O)C2C(=O)C(=O)C3=C([C@H](OC(C)=O)C[C@]4(C)C(=O)CC[C@@H]34)[C@]21C` (some centres undefined) [WmC20-pro, 1], 0.068 µM.
